Experimental findings from patent US12486227B2, “Small molecules for cancer therapy that reduce the expression of transcription factors KLF5 and EGR-1” (University of Florida Research Foundation, Incorporated, priority 2019, dated 2025) are described below.

The structures appear in SMILES notation. Read-outs that look alike come from different tables or passages of the source.

The subject of data set [1] is DLD-1 colon cancer cells. Nature of the data set: MTT viability assay, DLD-1. The data set is classed as cell-based. Conditions: Homo sapiens. An excerpt:
Specific Examples of compounds of the present disclosure have EC50 values estimated using a cell-based assay for binding to the KLF5 promoter and, in many cases, a follow-up viability assay (MTT) using DLD-1 colon cancer cells, a cell line known to highly express KLF5 and whose growth is adversely affected by the reduction of KLF5 levels. Assay protocols follow those described in the literature.^22,23 Other assays that are not described here but that are standard in the field may also be useful in establishing mechanism of action of these compounds.
In general terms: Tetrazolium assays rely on reduction of a dye to a coloured formazan, in cell work by metabolically active cells.

In data set [2] the test system is HCT-116 colorectal cancer cell line. Kind of data set: MTT growth assay, HCT-116. Type of data set: cell-based. Conditions: Homo sapiens, Table 1. An excerpt:
(§1) The observed activity is greater than that previously seen for ML264.

The subject of data set [3] is SW-620 colorectal cancer cell line. Nature of the data set: MTT growth assay, SW-620. The data set is classed as cell-based. Conditions: Homo sapiens, Table 1.
Excerpt: as §1

The subject of data set [4] is DLD-1, HCT116, HT29, and SW620 cells. Nature of the data set: Cell viability (Cell Titer-Glo) of four CRC cell lines. Type of data set: cell-based, human. Conditions: 24 h, FIGS. 2A-C. As to the method: SR18662 is potent inhibitor of CRC cell growth in vitro. […]. To examine the impact of these compounds on viability of CRC cell lines, we performed cell proliferation and cell growth assays using DLD-1 and HCT116 CRC cells. […] […]. Cell viability. DLD-1, HCT116, HT29, and SW620 cells were seeded in 96 well plate format and treated with DMSO or with compounds dissolved in DMSO in the range of 0.001 to 20 μM final concertation for 24 h and analyzed with the Cell Titer-Glo luciferase assay system (Promega) using a SpectraMax M3 (Molecular Devices) plate reader. The IC50 values were calculated using GraphPad Prism version 5.00 for Windows (GraphPad Software).
Background: ATP-based viability assays read luminescence as a measure of living cells.

Data set [5] relates to KLF5. Kind of data set: Western blot of KLF5 protein levels in DLD-1 cells. Conditions: 1 μM and 10 μM, 24 h. The data set is classed as cell-based, human. As to the method:
In this experiment the test compounds were at 1 μM and 10 μM, and protein levels were measured after 24 h.
(§2) Western blot analysis. Total protein was extracted from cells with Laemmli buffer and the analysis was performed as described previously (24).
On the technique in general: A western blot detects proteins with antibodies after separation by electrophoresis.

Data set [6] deals with EGR-1. Nature of the data set: Western blot of EGR-1 protein levels in DLD-1 cells. Conditions: 1 μM and 10 μM, 24 h. Type of data set: cell-based, human. How it is done: We have studied the effects of SR18662 upon lowering KLF5 levels in colon cancer cell lines. […] The levels of the protein EGR-1 are lowered as well. In this experiment the test compounds were at 1 μM and 10 μM, and protein levels were measured after 24 h. […] The study was also repeated using HCT-116 cells rather than DLD-1 cells, with similar results. These compounds appear to dose-dependently reduce levels of KLF5 and EGR-1 proteins.
as §2

The test system of data set [7] is DLD-1 cells. Kind of data set: Apoptosis assay (Annexin V/PI, FACS), DLD-1. The data set is classed as cell-based, human. As to the method:
We performed an apoptosis assay using DLD-1 and HCT116 cells treated with vehicle or 1 μM or 10 μM of test compounds over the course of three days with Annexin V/P1 stain in combination with FACS analysis. […] This is accompanied by an increase in the population of cells in early and late apoptosis, as well as an increase in the dead cell population over the three days of treatment. […] This effect was more pronounced upon treatment with SR18662 than ML264 or SR15006 (FIGS. 4D-F). When a lower concentration (1 μM) of test compounds was used, only a small increase of the population of cells undergoing early apoptosis was seen after 72 h treatment with SRI8662.
Cell proliferation, cell cycle and apoptosis assays. For cell proliferation experiments, cell cycle, and apoptosis determination, DLD-1 and HCT116 cells were treated with 1 or 10 μM of each compound or with vehicle (DMSO). The cells were collected at 24, 48, and 72 h post-treatment and analyzed as previously described (24). Each experiment was performed in triplicate.

Data set [8] has as its system major human CYP450 liver enzymes. Kind of data set: Inhibition of human CYP450 liver enzymes. The data set is classed as in vitro ADME.

With `CS(=O)(=O)N1CCN(C(=O)CNC(=O)/C=C/c2ccc(Cl)c(Cl)c2)CC1` [Example 9, (E)-3-(3,4-dichlorophenyl)-N-(2-(4-(methylsulfonyl)piperazin-1-yl)-2-oxoethyl)acrylamide], the EC50 in data set [1] (MTT, Table 1, read-out: EC50 (nM) DLD-1) was 1.7 nM; in data set [1] (Table 2, read-out: Approximate potency (EC50 · mol/L) (DLD1, MTT assay)), 1.68 nM; in data set [2] it was 22 nM; in data set [3], 22 nM. Besides, the “cell viability IC50 relative to ML264 and SR15006” value in data set [4] was “about one log unit lower than those for ML264 and SR15006”. Besides, the “KLF5 protein levels by Western blot” value in data set [5] is “significantly reduced”. Moreover, in data set [6], the “EGR-1 protein levels by Western blot” value is given as “lowered”. The “healthy cell count and apoptosis” value in data set [7] (DLD-1, 1 μM, 48 h and 72 h) was “decrease in healthy cell count at 48 h and 72 h and an increase in early and late apoptosis”. In data set [7] (DLD-1, 10 μM, 48 and 72 h), the “population of healthy cells” value is “significant decrease in the population of healthy cells”. The “inhibition of major human CYP450 liver enzymes” value in data set [8] is “does not inhibit”.
